{
  "source": "patent US20070292403A1",
  "about": "“Methods of treating a neurological disorder with creatine monohydrate” (priority 2006, published 2007)",
  "key": {"[1]": {"tested_on": "subjects with early Parkinson's disease (PD)", "assay": "Example 2: safety and tolerability in the early Parkinson's disease trial", "type": "in vivo, human", "settings": "human, in vivo", "protocol": "Study Design and Randomization. This example was a single arm futility study designed to assess creatine and minocycline. A placebo arm for calibration was included in the example. Eligible subjects were randomly assigned in a 1:1:1 fashion to receive 1) 10 g/day of creatine monohydrate and placebo minocycline, 2) placebo creatine monohydrate and 200 mg/day of minocycline, or 3) placebo creatine monohydrate and placebo minocycline. The primary futility analysis was at 12 months of follow-up, but each subject was followed for 18 months for additional safety information. Subjects and investigators were kept blinded to treatment group.\nDosages. Creatine was administered as 5 g sachets mixed with 8 ounces of liquid taken twice a day and minocycline was administered as 100 mg capsules taken twice a day. Both were taken with meals.\nOutcome measures. The primary, prespecified outcome measure was the change in the total Unified PD Rating Scale (UPDRS) score from baseline to either the time at which there was sufficient disability to warrant symptomatic therapy for PD or 12 months, whichever came first. Disability was assessed by the sight investigator, based on impairment in ambulation, activities in daily living, and occupational status. The mean change in total UPDRS for each treatment group was compared to a prespecified futility threshold of a 30% reduction in the historically derived change in the total UPDRS, which was based on a placebo arm of a previous clinical trial. Tolerability was defined as the proportion of subjects taking study drug for the full 12 months. All […] adverse events (SAEs) were reviewed by the study medical monitor and an independent medical monitor. Both the site investigator and medical monitors assessed the potential relationship between SAEs and study drug.\nStudy Procedures. At the screening visit, the purpose and potential risks were explained to potential subjects and each subject gave written consent. […] Blood was obtained for serum chemistry and complete blood count. Participants were reevaluated at 1, 3, 6, 9, and 12 months (±6 days) after the baseline visit using the battery of clinical scales and blood was drawn again at 6 and 12 months."}, "[2]": {"set-up": "species or system human", "settings": "in vivo", "protocol": "A two-phase open-label study was conducted to better determine an optimal dose of creatine symptomatic subjects with Huntington's disease. A dose-escalation study (10-40 grams per day) was conducted to determine the maximally tolerated dose (MTD) followed by a de-escalation phase to assess whether brain and serum levels of creatine might be maximal at doses lower than the MTD. Ten subjects were enrolled and followed prospectively for two weeks at each done level increasing in 5-gram increments during dose escalation that lasted 13 weeks. Assessments at each visit included UHDRS, EKG, vital signs, clinical safety and research labs. MRI spectroscopy was conducted prior to baseline at peak done (40 grams) and one month after de-escalation to either 30 or 15 grams daily. To determine an optimal dose, pharmacokinetic as well as clinical data were considered. Once the maximal dose was reached, subjects were assigned one of two lower doses previously taking (15 grams a day (n=5) or 30 grams a day (n=5)). Serum creatine was assessed at baseline, at the end of each 2-week dose escalation step and at the end of the de-escalation phase to assess the correspondence between serum and brain levels of creatine at steady state."}, "cortical thinning in HD": {"tested_on": "cortical thinning in HD", "assay": "Example 3: morphometric neuroimaging, rate of cortical thinning", "type": "in vivo, human", "settings": "high dose creatine", "protocol": "High dose creatine slows cortical thinning. Morphometric neuroimaging was performed in all subjects. Longitudinal data from up to three years prior to initiating creatine was available on 6 or the 10 subjects. The rate of thinning of cortical regions in HD was modeled based on the longitudinal data and a change in rate was determined for each region of the group while on creatine. […] Creatine reduced the rate of thinning in almost every region, and the rate of change was statistically significant for several regions and amounted to about a 30% slowing. There was no effect on the rate of caudate volume loss (p=0.67), rate of putamen volume loss, or on total brain volume. The lack of an effect on striatal volumes likely reflects the fact that in these individuals, caudate and putamen volumes were already reduced by more than half and the lack of change in whole brain by the fact that small proportion of the brain is represented by the detected change."}},
  "data": [
    {"smiles": "CN(CC(=O)O)C(=N)N", "note": "[Creatine, creatine monohydrate]", "values": [
      {"measurement": "Patients with dose reductions", "setting": "[1]", "result": 8},
      {"measurement": "Dose at which serum creatine levels reached a plateau", "setting": "[2]; human", "result": "30-35 grams/day"},
      {"measurement": "Brain levels of creatine in the frontal cortex by MRI spectroscopy", "setting": "[2]", "result": "continued increases"},
      {"measurement": "Effect on rate of caudate volume loss, rate of putamen volume loss, total brain volume", "setting": "cortical thinning in HD; caudate p=0.67", "result": "no effect"},
      {"measurement": "Slowing of the rate of cortical thinning", "setting": "cortical thinning in HD; several cortical regions statistically significant, longitudinal data on 6 of 10 subjects", "result": "~30", "unit": "%"}
    ]}
  ]
}
